According to patent publication US20240285630A1, “Methods and compositions for improving exercise performance” (MEZZION PHARMA CO., LTD., priority 2021, published 2024):
Several values for one entry are separate records, joined by “and”; a condition that tells them apart may be missing. Equal entries are not always repeated.

Tests used:
[1] = test system: Fontan population; assay: FUEL OLE (open-label extension) trial; assay type: in vivo, human; details: those treated with udenafil in the FUEL trial; 26 to 78 weeks
Text: Like most extension studies, the FUEL open label extension trial was not a placebo-controlled trial, but was instead designed to establish a safety profile over a longer duration of drug exposure—and is an independent source of data from FUEL.

[2] = test system: adolescents with Fontan physiology; assay: FUEL Trial cardiopulmonary exercise test (CPET), cycle ergometer ramp protocol; assay type: in vivo, human; details: for Change in VE/VCO2 at VAT: 26 week - baseline; for Peak VO2 (% change), difference in change (treatment - placebo): natural log transformed data
Text: The primary outcome was the change in oxygen consumption at peak exercise (max or peak VO2) from baseline to the 26-week visit. Secondary exercise outcomes included change in additional measures at maximal exertion, as well as change in measures of submaximal exercise at the ventilatory anaerobic threshold (VAT). The primary outcome for clinical secondary aims included change in myocardial performance index (MPI), an echocardiographically-derived measure of systolic and diastolic ventricular function, change in log-transformed reactive hyperemia index (InRHI), a PAT-derived measure of peripheral vascular function, and change in log-transformed serum BNP level. Safety was monitored through adverse event reports, which were collected according to a pre-specified protocol of study coordinator outreach, and through ad hoc patient and family communication with members of the study team at each site.
(§1) Baseline clinical testing completed before drug initiation included a blood draw to measure brain-type natriuretic peptide (BNP) level, a cardiopulmonary exercise test (CPET) using a standardized cycle ergometer ramp protocol, a standardized echocardiogram, and an assessment of peripheral vascular function using peripheral arterial tonometry (PAT) measured by finger cuff (EndoPAT; Itamar Medical, Israel). Participants who achieved maximal effort, defined as respiratory exchange ratio (RER)≥1.10 at peak exercise during CPET, were eligible for randomization and study drug initiation. […] End-of-study clinical testing included repeat measurement of serum BNP, CPET, echocardiogram, and PAT.
The primary analysis used the intention-to-treat population to evaluate the difference in the change in the primary outcome between treatment arms. This difference was assessed with an analysis of covariance (ANCOVA) with fixed factors for ventricular morphology (single left versus single right or mixed) and treatment group, with a continuous covariate of baseline max VO2. […] Secondary analyses included participants who successfully completed the protocol with measurable values at each of the secondary endpoints. Secondary outcomes of continuous data points were analyzed in the manner described for the primary outcome. In order to assess the generalizability of findings at the ventilatory anaerobic threshold, demographic and clinical characteristics were compared between participants without paired VO2 at VAT data and those comprising the remainder of the cohort.
The FUEL Trial was a Phase III clinical trial conducted at 30 centers. […] The primary outcome was the between group difference in change in oxygen consumption at peak exercise. Secondary outcomes included between group differences in changes in sub-maximal exercise at the ventilatory anaerobic threshold (VAT), the myocardial performance index (MPI), the natural log of the reactive hyperemia index (InRHI), and serum brain-type natriuretic peptide (BNP).
Baseline clinical testing completed before drug initiation included a blood draw to measure brain-type natriuretic peptide (BNP) level, a cardiopulmonary exercise test (CPET) using a standardized cycle ergometer ramp protocol (previously described in children and adolescents with Fontan physiology, Sleeper L A, Anderson P, Hsu D T, Mahony L, McCrindle B W, Roth S J, Saul J P, Williams R V, Geva T, Colan S D, Clark B J and Pediatric Heart Network I. Design of a large cross-sectional study to facilitate future clinical trials in children with the Fontan palliation. Am Heart J. 152(3):427-433 (September 2006), a standardized echocardiogram, and an assessment of peripheral vascular function using peripheral arterial tonometry (PAT) measured by finger cuff (EndoPAT; Itamar Medical, Israel). Participants who achieved maximal effort, defined as respiratory exchange ratio (RER)>1.10 at peak exercise during CPET, were eligible for randomization and study drug initiation. […]

[3] = test system: adolescents with Fontan physiology; details: cited from earlier work
[4] = test system: adolescents with Fontan physiology; assay: FUEL Trial resting data (heart rate, blood pressure, oxygen saturation); assay type: in vivo, human; details: baseline to 26-week
Text: as §1
The primary analysis used the intention-to-treat population to evaluate the difference in the change in the primary outcome between treatment arms. This difference was assessed with an analysis of covariance (ANCOVA) with fixed factors for ventricular morphology (single left versus single right or mixed) and treatment group, with a continuous covariate of baseline max VO2. For those without data at the 26-week visit, this value was imputed as equal to the baseline value (no change). […] Secondary outcomes of continuous data points were analyzed in the manner described for the primary outcome. […]

[5] = baseline peak VO2 <80% predicted, N=251
[6] = baseline peak VO2 <80% predicted, N=301
[7] = baseline peak VO2 ≥80% predicted, N=66
[8] = excluding those with baseline peak VO2 ≥80% predicted, n=122
[9] = excluding those with baseline peak VO2 ≥80% predicted, n=150
[10] = post-hoc subgroup excluding baseline peak VO2 ≥80% of predicted
[11] = subgroup with baseline peak VO2 ≥80% of predicted, each treatment group

## CCCOc1ccc(S(=O)(=O)NCCC2CCCN2C)cc1-c1nc2c(CCC)nn(C)c2c(=O)[nH]1 (stereo not shown) [Udenafil, udenafil]
[1]
  Change from baseline in peak or max VO2 over FUEL and FUEL OLE: persistence of benefit
[2]; 87.5 mg twice daily, baseline to 26-week, ITT
  Increase in peak VO2 (VO2 max), percent: 2.8%
[2]; 87.5 mg twice daily, baseline to 26-week, ITT n=200, p=0.071 vs placebo
  Increase in peak VO2 (VO2 max), unindexed: 44 mL/min and 44 ± 245 mL/min
[2]; 26-week value, mean ± SD, n=185
  Anaerobic threshold oxygen consumption indexed to weight, 26-week: 18.20 ± 4.51 (185) mL/kg/min
[2]; 26-week value, mean ± SD, n=200
  Peak exercise oxygen consumption indexed to weight, 26-week: 27.61 ± 6.87 (200) mL/kg/min
[2]; ITT analysis
  Number needed to treat (NNT) for an increase in peak VO2: 10
[2]; ITT analysis without imputation of missing data
  Patients with an increase in peak VO2, number: 86
[2]; ITT analysis without imputation of missing data, p=0.075 vs placebo
  Patients with an increase in peak VO2, percent: 46%
[2]; all participants (ITT) n=200, p=0.092 vs placebo
  Peak VO2 indexed to weight, change 26 week - baseline: −0.23 ± 4.06 (200) mL/kg/min and −0.23 mL/kg/min
[2]; all participants n=170, p=0.012 vs placebo
  VO2 at VAT indexed to weight, change 26 week - baseline: −0.07 ± 3.0 (170) mL/kg/min and −0.07 mL/kg/min
[2]; all participants n=189
  % Predicted Peak VO2, 26 week - baseline: −0.90
[2]; all participants n=200
  Peak VO2 (% change, ml/kg/min), 26 week - baseline: −1.0%
[2]; all participants
  Change in VE/VCO2 at VAT: −0.76
[2]; all participants, listed as udenafil
  Change in VE/VCO2 at VAT: −0.8
[2]; all participants, baseline to 26-week
  Change in work rate at VAT: 3.46 Watts
[2]; baseline peak VO2 <80% predicted, N=243
  Work at VAT, difference in change (treatment - placebo): 3.54 watts
[2]; [5]
  VE/VCO2 at VAT, difference in change (treatment - placebo): −0.66
  VO2 at VAT, difference in change (treatment - placebo): 0.77 mL/min/kg
[2]; [6]
  Peak VO2, difference in change (treatment group - placebo group): 1.12 mL/min/kg
  Peak VO2 (% change), difference in change (treatment - placebo): 5.0%
[2]; baseline peak VO2 ≥80% predicted (Super Fontan), N=77
  Peak VO2, difference in change (treatment group - placebo group): -0.89 mL/min/kg
[2]; baseline peak VO2 ≥80% predicted (Super Fontan), N=77, listed as udenafil
  Peak VO2, difference in change (treatment group - placebo group): no significant udenafil treatment effect
[2]; [7]
  VE/VCO2 at VAT, difference in change (treatment - placebo): −1.18
  VO2 at VAT, difference in change (treatment - placebo): 0.38 mL/min/kg
  Work at VAT, difference in change (treatment - placebo): 3.15 watts
[2]; baseline peak VO2 ≥80% predicted, N=77
  Peak VO2 (% change), difference in change (treatment - placebo): −2.39%
[2]; baseline to 26-week
  Decrease in VE/VCO2 at VAT, percent: 2.1%
  Improvement in work rate at VAT, percent: 5.5% and 5.2%
[2]; baseline to 26-week, given as size of decrease
  Decrease in VE/VCO2 at VAT (improved ventilatory efficiency): 0.8
[2]; baseline to 26-week, mean ± SD
  Peak exercise heart rate, change: −1.4 ± 11 bpm
  Peak exercise minute ventilation, change: 1.2 ± 14 L/min
  Peak exercise oxygen saturation, change: 0.4 ± 3.4%
  Peak exercise respiratory rate, change: −1.1 ± 10 breaths/min
[2]; baseline to 26-week, mean ± SD, listed as udenafil
  Peak exercise minute ventilation, change: no difference in the change in minute ventilation between groups
[2]; excluding those with baseline peak VO2 ≥80% predicted, n=119
  Work at VAT, 26 week - baseline: 3.80 watts
[2]; [8]
  VE/VCO2 at VAT, 26 week - baseline: −0.61
  VO2 at VAT, 26 week - baseline: 0.11 mL/min/kg
[2]; [9]
  % Predicted Peak VO2, 26 week - baseline: 0.43
  Peak VO2 (% change, ml/kg/min), 26 week - baseline: 0.4%
  Peak VO2, 26 week - baseline: 0.23 mL/min/kg
[2]; [10]
  Number needed to treat (NNT) for an increase in peak VO2: 8.2
  Patients with an increase in peak VO2, number: 75
[2]; post-hoc subgroup excluding baseline peak VO2 ≥80% of predicted, p=0.037 vs placebo
  Patients with an increase in peak VO2, percent: 50%
[2]; [11]
  Patients with negative change in peak VO2, percent: 71 to 72%
  Patients with positive change in peak VO2, percent: 28 to 29%
[3]; 87.5 mg twice daily compared with other tested regimens
  Average serum concentration: highest average serum concentration
[3]; 87.5 mg twice daily
  Dose limiting adverse events: not associated with dose limiting adverse events
[3]; all tested dosing regimens
  Tolerability: demonstrated tolerability at all tested dosing regimens
[4]
  Change in resting heart rate, respiratory rate, or systolic blood pressure, udenafil vs placebo: no difference
